The source of these data is US9884063B2, “Amido-substituted azole compounds” (Bayer Pharma Aktiengesellschaft, priority 2014, dated 2018).

As a reminder, the IC50 is the point on the concentration scale where inhibition reaches its midpoint. A lower IC50 goes with greater potency.

The experiment relates to wildtype Wnt signaling cascade. In words: HEK293 TOP Assay (Super TopFlash luciferase reporter, Wnt-3a stimulated). Type of experiment: cell-based. Conditions: Homo sapiens, HEK293, 16 h, HEK293 TOP reporter cell line, Wnt-3a at EC50, 16 hours incubation, compound dilution series 50 μM to 15 nM. As for the experimental part: In order to discover and characterize small molecules which inhibit the wildtype Wnt pathway, a cellular reporter assay was employed. The corresponding assay cell was generated by transfection of the mammalian cell line HEK293 (ATCC, #CRL-1573) with the Super TopFlash vector (Morin, Science 275, 1997, 1787-1790; Molenaar et al., Cell 86 (3), 1996, 391-399). The HEK293 cell line is cultivated at 37° C. and 5% CO2 in DMEM (Life Technologies, #41965-039), supplemented with 2 mM glutamine, 20 mM HEPES, 1.4 mM pyruvate, 0.15% Na-bicarbonate and 10% foetal bovine serum (GIBCO, #10270). Stable transfectants were generated by selection with 300 μg/ml Hygromycin.
In preparation of the assay, the two cell lines were plated 24 hrs before beginning the test at 10000 cells per well in a 384 micro titre plate (MTP) in 30 μl growth medium. […] The recombinant human Wnt-3a was thereby applied between 2500 and 5 ng/ml in two-fold dilution steps.
Selective inhibitory activity for small molecules on the wildtype Wnt pathway was determined after parallel incubation of both (TOP and FOP) HEK293 reporter cell lines with a compound dilution series from 50 μM to 15 nM in steps of 3.16-fold dilutions in CAFTY buffer (130 mM sodium chloride, 5 mM potassium chloride, 20 mM HEPES, 1 mM magnesium chloride, 5 mM sodium bicarbonate, pH 7.4) containing 2 mM Ca^2+ and 0.01% BSA.
The compounds were thereby serially prediluted in 100% DMSO and thereafter 50 fold into the CAFTY compound dilution buffer (described above).
On the technique in general: Reporter assays use an easily measured gene product as a stand-in for the process of interest.

Molecules are shown by their SMILES. Counter-ions that a name gives are not always drawn.

`CNC(=O)c1nc[nH]c1C(=O)Nc1ccc(NC(=O)c2cc(F)ccc2F)cc1` [Example 318, N^5-{4-[(2,5-difluorobenzoyl)amino]phenyl}-N^4-methyl-1H-imidazole-4,5-dicarboxamide] displayed an IC50 of 1.3 µM.
As for `NC1CCN(C(=O)c2[nH]cnc2C(=O)Nc2ccc(NC(=O)c3ccc(F)cc3Cl)cc2)C1` (centres unmarked) [Example 285, 5-[(3-aminopyrrolidin-1-yl)carbonyl]-N-{4-[(2-chloro-4-fluorobenzoyl)amino]phenyl}-1H-imidazole-4-carboxamide hydrochloride salt], the figure is 1.15 µM; as for `O=C(Nc1ccc(NC(=O)c2nc[nH]c2C(=O)NCCF)cc1)c1ccc(F)cc1` [Example 174, N^4-{4-[(4-fluorobenzoyl)amino]phenyl}-N^5-(2-fluoroethyl)-1H-imidazole-4,5-dicarboxamide], 1.05 µM; as for `CC(C)(CN1CCOCC1)NC(=O)c1[nH]cnc1C(=O)Nc1ccc(NC(=O)c2ccccc2Cl)cc1` [Example 154, N^4-{4-[(2-chlorobenzoyl)amino]phenyl}-N^5-[2-methyl-1-(morpholin-4-yl)propan-2-yl]-1H-imidazole-4,5-dicarboxamide], 1.25 µM.
`CN1CCN(CCCNC(=O)c2[nH]cnc2C(=O)Nc2ccc(NC(=O)c3ccc(F)cc3)cc2)CC1` [Example 181, N^4-{4-[(4-fluorobenzoyl)amino]phenyl}-N^5-[3-(4-methylpiperazin-1-yl)propyl]-1H-imidazole-4,5-dicarboxamide] registered an IC50 of 6.7 µM.
As for `CNC(=O)c1nc[nH]c1C(=O)Nc1ccc(NC(=O)c2ccn(C)n2)cc1` [Example 332, N^4-methyl-N^5-(4-{[(1-methyl-1H-pyrazol-3-yl)carbonyl]amino}phenyl)-1H-imidazole-4,5-dicarboxamide], the figure is 9.65 µM.
As for `CNC(=O)c1nc[nH]c1C(=O)Nc1ccc(NC(=O)c2ccco2)cc1` [Example 329, N^5-{4-[(furan-2-ylcarbonyl)amino]phenyl}-N^4-methyl-1H-imidazole-4,5-dicarboxamide], the figure is 50 µM.
Then `CNC(=O)c1nc[nH]c1C(=O)Nc1ccc(NC(=O)c2cc(F)cc(C#N)c2)cc1` [Example 371, N^5-{4-[(3-cyano-5-fluorobenzoyl)amino]phenyl}-N^4-methyl-1H-imidazole-4,5-dicarboxamide], with 50 µM.
Molecule `O=C(Nc1ccc(NC(=O)c2nc[nH]c2C(=O)NCCN2CCOCC2)cc1)c1ccc(F)cc1` [Example 151, N^4-{4-[(4-fluorobenzoyl)amino]phenyl}-N^5-[2-(morpholin-4-yl)ethyl]-1H-imidazole-4,5-dicarboxamide] had an IC50 of 0.95 µM.
In the case of `CNC(=O)c1nc[nH]c1C(=O)Nc1ccc(NC(=O)c2ccc(F)cc2)nc1` [Example 115, N^5-{6-[(4-fluorobenzoyl)amino]pyridin-3-yl}-N^4-methyl-1H-imidazole-4,5-dicarboxamide], half-maximal inhibition (IC50) required 3.55 µM.
Then `CNC(=O)c1nc[nH]c1C(=O)Nc1ccc(NC(=O)c2ccccc2N(C)C)cc1` [Example 339, N^5-(4-{[2-(dimethylamino)benzoyl]amino}phenyl)-N^4-methyl-1H-imidazole-4,5-dicarboxamide], with 45.5 µM; and `CNC(=O)c1nc[nH]c1C(=O)Nc1ccc(NC(=O)c2ccc(C(F)(F)F)cc2)cc1` [Example 316, N^4-methyl-N^5-(4-{[4-(trifluoromethyl)benzoyl]amino}phenyl)-1H-imidazole-4,5-dicarboxamide], with 13.5 µM.
As for `CNC(=O)c1nc[nH]c1C(=O)Nc1ccc(NC(=O)c2ccc(Cl)cc2OC)cc1` [Example 310, N^5-{4-[(4-chloro-2-methoxybenzoyl)amino]phenyl}-N^4-methyl-1H-imidazole-4,5-dicarboxamide], the figure is 10.5 µM.
As to `O=C(Nc1ccc(NC(=O)c2nc[nH]c2C(=O)NC(CO)CO)cc1)c1ccc(F)cc1Cl` [Example 172, N^4-{4-[(2-chloro-4-fluorobenzoyl)amino]phenyl}-N^5-(1,3-dihydroxypropan-2-yl)-1H-imidazole-4,5-dicarboxamide], the IC50 amounted to 2.25 µM.
